According to ChEMBL document CHEMBL1153045, “Aminopiperidine-fused imidazoles as dipeptidyl peptidase-IV inhibitors” (Bioorg Med Chem Lett, 2009):

Key:
Dipeptidyl peptidase 8 = Dipeptidyl peptidase 8 (Homo sapiens, UniProt Q6V1X1); assay: Inhibition of human DPP8 expressed in baculovirus by continuous fluorescent assay
Dipeptidyl peptidase 9 = Dipeptidyl peptidase 9 (Homo sapiens, UniProt Q86TI2); assay: Inhibition of human DPP9 expressed in baculovirus by continuous fluorescent assay
Dipeptidyl peptidase 2 = Dipeptidyl peptidase 2 (Homo sapiens, UniProt Q9UHL4); assay: Inhibition of human recombinant QPP transfected in insect SF9 cells
[1] = Plasma clearance in rat at 1 mg/kg, iv or 2 mg/kg, po; format: ADME, organism-based
[2] = Half life in rat at 1 mg/kg, iv or 2 mg/kg, po; format: ADME, organism-based; settings: in vivo
[3] = Oral bioavailability in rat at 2 mg/kg, po; format: ADME, organism-based; settings: in vivo
[4] = Inhibition of rabbit L-type calcium channel; parameters: species or system Oryctolagus cuniculus
Cytochrome P450 2D6 = Cytochrome P450 2D6 (Homo sapiens, UniProt P10635); assay: Inhibition of CYP2D6; format: ADME
[5] = target: Voltage-gated inwardly rectifying potassium channel KCNH2 (Homo sapiens, UniProt Q12809); assay: Inhibition of human ERG
[6] = Metabolic stability in rat liver microsomes assessed as compound remaining after 60 mins; format: ADME, Microsome; settings: read-out: Stability
[7] = Metabolic stability in dog liver microsomes assessed as compound remaining after 60 mins; format: ADME, Canis lupus familiaris, Microsome; settings: read-out: Stability
[8] = Metabolic stability in rhesus monkey liver microsomes assessed as compound remaining after 60 mins; format: ADME, Macaca mulatta, Microsome; settings: read-out: Stability
[9] = Metabolic stability in human liver microsomes assessed as compound remaining after 60 mins; format: ADME, Microsome; settings: read-out: Stability
[10] = Metabolic stability in rat hepatocytes assessed as compound remaining after 60 mins; format: ADME, cell-based, Hepatocyte; settings: read-out: Stability
[11] = Metabolic stability in dog hepatocytes assessed as compound remaining after 60 mins; format: ADME, cell-based, Canis lupus familiaris, Hepatocyte; settings: read-out: Stability
[12] = Metabolic stability in rhesus monkey hepatocytes assessed as compound remaining after 60 mins; format: ADME, cell-based, Macaca mulatta, Hepatocyte; settings: read-out: Stability
[13] = Metabolic stability in human hepatocytes assessed as compound remaining after 60 mins; format: ADME, cell-based, Hepatocyte; settings: read-out: Stability
[14] = Plasma clearance in mouse at 1 mg/kg, iv or 2 mg/kg, po; format: ADME, organism-based
[15] = Plasma clearance in dog at 1 mg/kg, iv or 2 mg/kg, po; format: ADME, organism-based, Canis lupus familiaris
[16] = Plasma clearance in rhesus monkey at 1 mg/kg, iv or 2 mg/kg, po; format: ADME, organism-based, Macaca mulatta
[17] = Half life in mouse at 1 mg/kg, iv or 2 mg/kg, po; format: ADME, organism-based; settings: in vivo
[18] = Half life in dog at 1 mg/kg, iv or 2 mg/kg, po; format: ADME, organism-based, Canis lupus familiaris; settings: in vivo
[19] = Half life in rhesus monkey at 1 mg/kg, iv or 2 mg/kg, po; format: ADME, organism-based, Macaca mulatta; settings: in vivo
[20] = Oral bioavailability in mouse at 2 mg/kg, po; format: ADME, organism-based; settings: in vivo
[21] = Oral bioavailability in dog at 2 mg/kg, po; format: ADME, organism-based, Canis lupus familiaris; settings: in vivo
[22] = Oral bioavailability in rhesus monkey at 2 mg/kg, po; format: ADME, organism-based, Macaca mulatta; settings: in vivo
Dipeptidyl peptidase 4 = Dipeptidyl peptidase 4 (Mus musculus, UniProt P28843); assay: Inhibition of C57BL/6N mouse DPP4
Mus musculus [23] = assay: Reduction in glucose excursion in C57BL/6N lean mouse at 0.1 mg/kg, po administered as single dose 60 mins before dextrose challenge by oral glucose tolerance test; format: functional; parameters: scale not given: the % may be the effect or the level left
Mus musculus [24] = assay: Reduction in glucose excursion in C57BL/6N lean mouse at 3 mg/kg, po administered as single dose 60 mins before dextrose challenge by oral glucose tolerance test; format: functional; parameters: scale not given: the % may be the effect or the level left
Mus musculus [25] = assay: Inhibition of DPP4 in C57BL/6N lean mouse at 1 mg/kg, po administered as single dose 60 mins before dextrose challenge by oral glucose tolerance test; format: functional
[26] = Plasma concentration in C57BL/6N lean mouse at 1 mg/kg, po administered as single dose 60 mins before dextrose challenge by oral glucose tolerance test; format: ADME, organism-based; parameters: dose 1 mg/kg, route oral
[27] = Fraction unbound in mouse plasma; format: ADME, cell-free

Dipeptidyl peptidase 9, sequence (Q86TI2 whole entry): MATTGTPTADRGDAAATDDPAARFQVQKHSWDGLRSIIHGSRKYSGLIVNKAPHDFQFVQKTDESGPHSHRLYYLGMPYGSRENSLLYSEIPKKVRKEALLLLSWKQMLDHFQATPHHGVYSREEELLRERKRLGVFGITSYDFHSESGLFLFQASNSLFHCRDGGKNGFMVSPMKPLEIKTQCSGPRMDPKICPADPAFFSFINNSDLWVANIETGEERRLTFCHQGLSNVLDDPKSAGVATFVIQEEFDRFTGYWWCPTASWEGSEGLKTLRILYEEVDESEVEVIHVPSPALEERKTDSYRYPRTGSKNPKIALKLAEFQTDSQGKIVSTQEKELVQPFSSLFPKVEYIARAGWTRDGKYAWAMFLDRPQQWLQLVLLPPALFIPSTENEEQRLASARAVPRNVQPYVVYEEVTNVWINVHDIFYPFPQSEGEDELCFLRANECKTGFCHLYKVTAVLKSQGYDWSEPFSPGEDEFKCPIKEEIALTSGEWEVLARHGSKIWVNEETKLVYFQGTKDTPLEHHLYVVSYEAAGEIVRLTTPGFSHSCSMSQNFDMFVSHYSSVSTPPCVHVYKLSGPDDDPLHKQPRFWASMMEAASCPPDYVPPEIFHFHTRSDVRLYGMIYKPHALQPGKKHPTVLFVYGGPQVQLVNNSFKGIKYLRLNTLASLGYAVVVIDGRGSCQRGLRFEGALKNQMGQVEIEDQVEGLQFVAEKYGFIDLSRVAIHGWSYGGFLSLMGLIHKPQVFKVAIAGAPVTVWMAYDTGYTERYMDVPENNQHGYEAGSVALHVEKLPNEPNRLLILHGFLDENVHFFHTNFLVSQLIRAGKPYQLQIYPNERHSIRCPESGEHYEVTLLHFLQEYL
Dipeptidyl peptidase 8, sequence (Q6V1X1 whole entry): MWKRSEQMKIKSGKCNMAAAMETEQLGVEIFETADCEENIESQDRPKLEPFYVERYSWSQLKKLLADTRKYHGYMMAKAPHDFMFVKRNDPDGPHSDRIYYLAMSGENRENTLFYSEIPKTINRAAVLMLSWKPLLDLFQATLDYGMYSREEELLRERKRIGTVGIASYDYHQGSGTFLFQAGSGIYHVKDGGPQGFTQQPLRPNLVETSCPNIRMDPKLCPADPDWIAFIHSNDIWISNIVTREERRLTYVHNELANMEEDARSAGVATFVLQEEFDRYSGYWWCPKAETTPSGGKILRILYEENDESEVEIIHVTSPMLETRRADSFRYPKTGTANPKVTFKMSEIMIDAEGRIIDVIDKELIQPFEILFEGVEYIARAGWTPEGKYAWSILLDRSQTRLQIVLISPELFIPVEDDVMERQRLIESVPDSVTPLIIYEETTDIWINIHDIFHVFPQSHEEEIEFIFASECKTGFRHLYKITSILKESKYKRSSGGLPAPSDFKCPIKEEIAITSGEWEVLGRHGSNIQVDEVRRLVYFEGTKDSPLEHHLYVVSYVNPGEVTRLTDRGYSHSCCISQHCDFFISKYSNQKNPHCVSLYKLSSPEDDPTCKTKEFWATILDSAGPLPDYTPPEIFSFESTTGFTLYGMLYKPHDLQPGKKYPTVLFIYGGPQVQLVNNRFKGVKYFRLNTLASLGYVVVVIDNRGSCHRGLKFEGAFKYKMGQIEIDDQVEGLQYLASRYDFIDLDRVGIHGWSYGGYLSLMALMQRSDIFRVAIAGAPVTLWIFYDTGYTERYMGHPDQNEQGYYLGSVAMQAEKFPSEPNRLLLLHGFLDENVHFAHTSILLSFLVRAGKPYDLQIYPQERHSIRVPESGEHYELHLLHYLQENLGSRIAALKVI
Cytochrome P450 2D6, sequence (P10635 whole entry): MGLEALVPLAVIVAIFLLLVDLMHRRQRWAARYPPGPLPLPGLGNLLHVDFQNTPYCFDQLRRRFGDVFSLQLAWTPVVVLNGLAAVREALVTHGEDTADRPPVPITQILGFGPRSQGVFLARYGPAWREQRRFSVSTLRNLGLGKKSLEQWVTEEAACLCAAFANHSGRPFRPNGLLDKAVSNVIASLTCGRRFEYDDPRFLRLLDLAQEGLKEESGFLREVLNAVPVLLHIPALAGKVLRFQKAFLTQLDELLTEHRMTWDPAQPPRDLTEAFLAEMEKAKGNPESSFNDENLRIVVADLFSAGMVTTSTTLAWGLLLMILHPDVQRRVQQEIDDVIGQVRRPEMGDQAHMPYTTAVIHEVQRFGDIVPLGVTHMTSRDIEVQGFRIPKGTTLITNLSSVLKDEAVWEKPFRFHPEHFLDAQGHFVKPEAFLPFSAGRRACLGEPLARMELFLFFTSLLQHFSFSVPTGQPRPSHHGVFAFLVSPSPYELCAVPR
Voltage-gated inwardly rectifying potassium channel KCNH2, sequence (Q12809 whole entry): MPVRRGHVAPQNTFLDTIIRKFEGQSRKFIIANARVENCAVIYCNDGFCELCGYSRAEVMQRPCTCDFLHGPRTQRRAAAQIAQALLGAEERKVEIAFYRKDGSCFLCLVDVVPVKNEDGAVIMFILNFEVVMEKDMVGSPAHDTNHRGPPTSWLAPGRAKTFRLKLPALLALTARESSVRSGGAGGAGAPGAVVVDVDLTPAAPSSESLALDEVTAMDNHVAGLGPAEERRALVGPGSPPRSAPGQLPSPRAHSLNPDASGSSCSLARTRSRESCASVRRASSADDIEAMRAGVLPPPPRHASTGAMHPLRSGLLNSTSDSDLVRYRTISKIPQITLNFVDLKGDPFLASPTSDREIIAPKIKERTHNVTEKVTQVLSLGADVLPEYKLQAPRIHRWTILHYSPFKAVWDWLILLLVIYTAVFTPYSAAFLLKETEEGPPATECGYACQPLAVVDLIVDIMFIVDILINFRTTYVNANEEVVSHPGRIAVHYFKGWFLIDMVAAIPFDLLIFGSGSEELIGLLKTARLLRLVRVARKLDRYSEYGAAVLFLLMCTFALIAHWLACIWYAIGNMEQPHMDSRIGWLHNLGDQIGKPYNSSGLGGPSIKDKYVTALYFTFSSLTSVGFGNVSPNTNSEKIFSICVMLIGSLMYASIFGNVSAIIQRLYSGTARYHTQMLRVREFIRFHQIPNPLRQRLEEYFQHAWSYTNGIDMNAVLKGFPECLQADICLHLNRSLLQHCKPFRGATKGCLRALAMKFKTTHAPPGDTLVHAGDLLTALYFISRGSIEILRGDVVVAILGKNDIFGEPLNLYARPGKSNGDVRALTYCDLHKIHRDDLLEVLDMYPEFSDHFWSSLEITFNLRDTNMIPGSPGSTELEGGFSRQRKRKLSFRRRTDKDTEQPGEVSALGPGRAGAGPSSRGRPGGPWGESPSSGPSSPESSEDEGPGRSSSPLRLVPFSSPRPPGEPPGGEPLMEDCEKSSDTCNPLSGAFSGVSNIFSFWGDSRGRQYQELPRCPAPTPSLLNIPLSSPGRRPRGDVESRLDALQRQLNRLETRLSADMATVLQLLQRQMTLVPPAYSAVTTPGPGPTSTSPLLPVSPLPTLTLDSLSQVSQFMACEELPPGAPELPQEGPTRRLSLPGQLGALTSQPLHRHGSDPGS
Dipeptidyl peptidase 4, sequence (P28843 whole entry): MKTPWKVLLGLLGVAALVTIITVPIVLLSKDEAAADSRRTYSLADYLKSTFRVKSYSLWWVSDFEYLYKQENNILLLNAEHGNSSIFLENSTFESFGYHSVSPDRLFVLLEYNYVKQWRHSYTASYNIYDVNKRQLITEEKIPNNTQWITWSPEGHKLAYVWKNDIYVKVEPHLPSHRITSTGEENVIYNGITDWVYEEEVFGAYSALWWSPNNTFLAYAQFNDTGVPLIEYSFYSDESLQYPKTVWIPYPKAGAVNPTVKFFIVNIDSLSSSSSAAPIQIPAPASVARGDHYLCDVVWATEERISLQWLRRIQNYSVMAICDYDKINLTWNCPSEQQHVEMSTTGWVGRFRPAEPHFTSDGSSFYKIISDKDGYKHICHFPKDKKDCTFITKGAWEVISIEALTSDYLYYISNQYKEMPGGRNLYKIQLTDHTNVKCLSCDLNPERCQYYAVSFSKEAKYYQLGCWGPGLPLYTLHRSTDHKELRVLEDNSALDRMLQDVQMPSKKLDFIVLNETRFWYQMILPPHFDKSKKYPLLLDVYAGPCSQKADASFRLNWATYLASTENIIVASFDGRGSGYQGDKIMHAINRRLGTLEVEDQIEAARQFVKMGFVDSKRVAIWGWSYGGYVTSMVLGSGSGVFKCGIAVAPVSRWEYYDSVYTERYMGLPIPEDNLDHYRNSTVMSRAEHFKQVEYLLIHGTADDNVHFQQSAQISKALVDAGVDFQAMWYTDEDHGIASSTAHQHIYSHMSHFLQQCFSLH

N[C@H]1Cn2c(nc3ccccc32)C[C@@H]1c1cc(F)c(F)cc1F
IC50 (Dipeptidyl peptidase 8): > 100 µM | IC50 (Dipeptidyl peptidase 9): > 100 µM

N[C@H]1Cn2c(nc3cc(C(=O)O)ccc32)C[C@@H]1c1cc(F)c(F)cc1F.O=C(O)C(F)(F)F
IC50 (Dipeptidyl peptidase 2): > 100 µM | IC50 (Dipeptidyl peptidase 8): > 100 µM | IC50 (Dipeptidyl peptidase 9): > 100 µM | clearance [1]: 61 mL/min/kg | half-life [2]: 0.4 h | bioavailability [3]: 24%

N[C@H]1Cn2c(nc3ccc(F)cc32)C[C@@H]1c1cc(F)c(F)cc1F.O=C(O)C(F)(F)F
IC50 (Dipeptidyl peptidase 8): > 100 µM | clearance [1]: 25 mL/min/kg | half-life [2]: 1.4 h | bioavailability [3]: 37%

CS(=O)(=O)c1ccc2nc3n(c2c1)C[C@H](N)[C@@H](c1cc(F)c(F)cc1F)C3
IC50 (Dipeptidyl peptidase 2): > 100 µM | IC50 (Dipeptidyl peptidase 8): > 100 µM | IC50 (Dipeptidyl peptidase 9): > 100 µM

CCS(=O)(=O)c1ccc2c(c1)nc1n2C[C@H](N)[C@@H](c2cc(F)c(F)cc2F)C1
IC50 (Dipeptidyl peptidase 2): > 100 µM | IC50 (Dipeptidyl peptidase 8): > 100 µM | IC50 (Dipeptidyl peptidase 9): > 100 µM

N[C@H]1Cn2c(nc3ccc(OC(F)(F)F)cc32)C[C@@H]1c1cc(F)c(F)cc1F
IC50 (Dipeptidyl peptidase 9): > 100 µM

N[C@H]1Cn2c(nc3c(F)cc(F)cc32)C[C@@H]1c1cc(F)c(F)cc1F
IC50 (Dipeptidyl peptidase 8): > 100 µM

CS(=O)(=O)c1ccc2c(c1)nc1n2C[C@H](N)[C@@H](c2cc(F)c(F)cc2F)C1.O=C(O)C(F)(F)F
IC50 (Dipeptidyl peptidase 8): > 100 µM | IC50 (Dipeptidyl peptidase 9): > 100 µM | clearance [1]: 2.2 mL/min/kg | half-life [2]: 3.4 h | bioavailability [3]: 63% | IC50 [4]: > 100 µM | IC50 (Cytochrome P450 2D6): 1.5 µM

CS(=O)(=O)Nc1ccc2c(c1)nc1n2C[C@H](N)[C@@H](c2cc(F)c(F)cc2F)C1
IC50 (Dipeptidyl peptidase 8): > 100 µM | IC50 [5]: 2.5 µM

N[C@H]1Cn2c(nc3c(F)c(F)c(F)cc32)C[C@@H]1c1cc(F)c(F)cc1F
IC50 (Dipeptidyl peptidase 8): > 100 µM

N[C@H]1Cn2c(nc3ccncc32)C[C@@H]1c1cc(F)c(F)cc1F
IC50 (Dipeptidyl peptidase 2): > 100 µM

N[C@H]1Cn2c(nc3cccnc32)C[C@@H]1c1cc(F)c(F)cc1F
IC50 (Dipeptidyl peptidase 8): > 100 µM | IC50 (Dipeptidyl peptidase 9): > 100 µM

COc1ccc2c(c1)nc1n2C[C@H](N)[C@@H](c2cc(F)c(F)cc2F)C1
IC50 (Dipeptidyl peptidase 8): > 100 µM

N[C@H]1Cn2c(nc3cc(C(F)(F)F)ccc32)C[C@@H]1c1cc(F)c(F)cc1F.O=C(O)C(F)(F)F
IC50 (Dipeptidyl peptidase 8): > 100 µM | IC50 (Dipeptidyl peptidase 9): > 100 µM | clearance [1]: 4.8 mL/min/kg | half-life [2]: 7.6 h | bioavailability [3]: 55%

N[C@H]1Cn2c(nc3ccc(C(F)(F)F)cc32)C[C@@H]1c1cc(F)c(F)cc1F
IC50 (Dipeptidyl peptidase 8): > 100 µM

N[C@H]1Cn2c(nc3c(F)cccc32)C[C@@H]1c1cc(F)c(F)cc1F
IC50 (Dipeptidyl peptidase 8): > 100 µM | IC50 (Dipeptidyl peptidase 9): > 100 µM

N[C@H]1Cn2c(nc3cnccc32)C[C@@H]1c1cc(F)c(F)cc1F.O=C(O)C(F)(F)F.O=C(O)C(F)(F)F
IC50 (Dipeptidyl peptidase 2; sf9): > 100 µM | IC50 (Dipeptidyl peptidase 8): > 100 µM | IC50 (Dipeptidyl peptidase 9): > 100 µM | clearance [1]: 8.7 mL/min/kg | half-life [2]: 2.6 h | bioavailability [3]: 140% | IC50 (Cytochrome P450 2D6): 13 µM | remaining at 1 h [6]: 83% | remaining at 1 h [7]: 92% | remaining at 1 h [8]: 69% | remaining at 1 h [9]: 97% | remaining at 1 h [10]: 94% | remaining at 1 h [11]: 99% | remaining at 1 h [12]: 35% | remaining at 1 h [13]: 99%

Cc1ccc2c(c1)nc1n2C[C@H](N)[C@@H](c2cc(F)c(F)cc2F)C1
IC50 (Dipeptidyl peptidase 8): > 100 µM | IC50 (Dipeptidyl peptidase 9): > 100 µM

N[C@H]1Cn2c(nc3ncccc32)C[C@@H]1c1cc(F)c(F)cc1F.O=C(O)C(F)(F)F.O=C(O)C(F)(F)F
IC50 (Dipeptidyl peptidase 8): > 100 µM | IC50 (Dipeptidyl peptidase 9): > 100 µM | clearance [1]: 3.9 mL/min/kg | half-life [2]: 3.8 h | bioavailability [3]: 96% | IC50 [5]: 90 µM | IC50 [4]: > 100 µM | IC50 (Cytochrome P450 2D6): 5.2 µM

N[C@H]1Cn2c(nc3cnc(C(F)(F)F)cc32)C[C@@H]1c1cc(F)c(F)cc1F.O=C(O)C(F)(F)F.O=C(O)C(F)(F)F
clearance [1]: 1.4 mL/min/kg | half-life [2]: 8.7 h | bioavailability [3]: 110% | IC50 [4]: 96 µM | IC50 (Cytochrome P450 2D6): 11 µM

N[C@H]1Cn2c(nc3cnc(F)cc32)C[C@@H]1c1cc(F)c(F)cc1F.O=C(O)C(F)(F)F.O=C(O)C(F)(F)F
IC50 (Dipeptidyl peptidase 8): > 100 µM | clearance [1]: 0.5 mL/min/kg | half-life [2]: 17 h | bioavailability [3]: 87% | IC50 [5]: 81 µM | IC50 [4]: 1.5 µM | IC50 (Cytochrome P450 2D6): 12 µM

CN(C)C(=O)c1ccc2c(c1)nc1n2C[C@H](N)[C@@H](c2cc(F)c(F)cc2F)C1
IC50 (Dipeptidyl peptidase 8): > 100 µM | IC50 (Dipeptidyl peptidase 9): > 100 µM

CC(=O)Nc1ccc2c(c1)nc1n2C[C@H](N)[C@@H](c2cc(F)c(F)cc2F)C1
IC50 (Dipeptidyl peptidase 9): > 100 µM

Cl.N[C@H]1Cn2c(nc3cnccc32)C[C@@H]1c1cc(F)c(F)cc1F
IC50 (Dipeptidyl peptidase 2): > 100 µM | IC50 (Dipeptidyl peptidase 8): > 100 µM | IC50 (Dipeptidyl peptidase 9): > 100 µM | clearance [14]: 36 mL/min/kg | clearance [15]: 2.7 mL/min/kg | clearance [16]: 35 mL/min/kg | half-life [17]: 1.9 h | half-life [18]: 13 h | half-life [19]: 1 h | bioavailability [20]: 73% | bioavailability [21]: 120% | bioavailability [22]: 11% | IC50 [4]: > 100 µM | IC50 (Cytochrome P450 2D6): 13 µM | IC50 (Dipeptidyl peptidase 4): 0.045 µM | Activity (Mus musculus [23]): 27% | Activity (Mus musculus [24]): 49% | inhibition in vivo at 1 mg/kg (Mus musculus [25]): 88% | concentration at 1 h [26]: 691 nM | fraction unbound [27]: 0.55

N[C@H]1Cn2c(nc3cc(F)ccc32)C[C@@H]1c1cc(F)c(F)cc1F
IC50 (Dipeptidyl peptidase 8): > 100 µM
